Where two headings read alike, the source gives them in different places.
Target: CFTR-mediated chloride transport in human intestinal epithelial enteroid cells (Homo sapiens, UniProt P13569)
Experiment: Membrane potential dye, Enteroid Assay A
Assay type: cell-based
Settings: for EC50: read-out: Ent. A EC50
In short: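 Membrane potential dye (20 μM methyl oxonol, with 30 μM CaCCinh-A01 and 30 μM Chicago Sky Blue) loaded 25 min at room temperature into ROCK-inhibitor-seeded human enteroid cells. Chloride-free stimulation buffer triggered transport, followed by 15 min fluorescence. % Activity relative to 3 μM/3 μM/300 nM triple-combination control.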

[1] = enteroid cells incubated with test compound 18-24 hours, acute 10 μM forskolin and 300 nM N-[2,4-bis(1,1-dimethylethyl)-5-hydroxyphenyl]-1,4-dihydro-4-oxoquinoline-3-carboxamide
[2] = percentage of chloride transport of triple combination control (3 μM N-[(6-amino-2-pyridyl)sulfonyl]-6-(3-fluoro-5-isobutoxy-phenyl)-2-[(4S)-2,2,4-trimethylpyrrolidin-1-yl]pyridine-3-carboxamide based)

Chain of CFTR-mediated chloride transport in human intestinal epithelial enteroid cells (P13569 with tags, fused parts or gaps DEL508-508): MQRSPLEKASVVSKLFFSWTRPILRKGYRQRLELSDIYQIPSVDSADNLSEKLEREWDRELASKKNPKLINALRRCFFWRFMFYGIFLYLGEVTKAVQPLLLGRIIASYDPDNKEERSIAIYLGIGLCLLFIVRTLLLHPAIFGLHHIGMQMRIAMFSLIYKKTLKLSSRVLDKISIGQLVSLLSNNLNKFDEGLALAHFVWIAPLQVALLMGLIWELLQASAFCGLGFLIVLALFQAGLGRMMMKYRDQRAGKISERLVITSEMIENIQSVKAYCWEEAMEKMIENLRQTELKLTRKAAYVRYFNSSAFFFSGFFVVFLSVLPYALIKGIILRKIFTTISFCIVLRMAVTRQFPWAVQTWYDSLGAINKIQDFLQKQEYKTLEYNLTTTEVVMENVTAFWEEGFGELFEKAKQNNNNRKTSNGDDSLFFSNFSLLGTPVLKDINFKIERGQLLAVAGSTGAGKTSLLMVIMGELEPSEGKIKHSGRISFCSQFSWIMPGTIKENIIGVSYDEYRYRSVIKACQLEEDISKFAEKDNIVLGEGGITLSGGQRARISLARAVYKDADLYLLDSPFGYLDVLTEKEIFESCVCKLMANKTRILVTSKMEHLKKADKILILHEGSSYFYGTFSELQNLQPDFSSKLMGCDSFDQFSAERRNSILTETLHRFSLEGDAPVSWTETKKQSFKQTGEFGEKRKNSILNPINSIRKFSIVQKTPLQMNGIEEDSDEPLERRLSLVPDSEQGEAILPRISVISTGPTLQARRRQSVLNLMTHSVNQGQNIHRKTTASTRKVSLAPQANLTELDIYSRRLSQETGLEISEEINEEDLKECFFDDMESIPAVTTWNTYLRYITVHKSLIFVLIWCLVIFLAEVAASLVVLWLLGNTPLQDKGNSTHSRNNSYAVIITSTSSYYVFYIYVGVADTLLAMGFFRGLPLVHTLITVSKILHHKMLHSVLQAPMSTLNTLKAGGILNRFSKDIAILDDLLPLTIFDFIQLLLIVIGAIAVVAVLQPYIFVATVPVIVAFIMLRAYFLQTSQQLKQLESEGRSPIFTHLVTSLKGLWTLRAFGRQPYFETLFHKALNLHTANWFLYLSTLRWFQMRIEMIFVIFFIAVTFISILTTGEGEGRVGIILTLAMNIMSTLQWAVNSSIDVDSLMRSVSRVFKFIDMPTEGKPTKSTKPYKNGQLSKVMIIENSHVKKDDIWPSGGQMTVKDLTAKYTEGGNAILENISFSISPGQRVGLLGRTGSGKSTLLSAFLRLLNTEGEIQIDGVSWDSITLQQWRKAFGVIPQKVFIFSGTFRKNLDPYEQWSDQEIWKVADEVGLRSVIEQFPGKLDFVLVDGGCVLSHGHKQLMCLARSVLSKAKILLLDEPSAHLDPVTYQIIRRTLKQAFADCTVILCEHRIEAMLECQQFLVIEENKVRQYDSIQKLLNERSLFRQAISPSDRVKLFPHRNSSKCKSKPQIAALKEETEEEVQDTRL

Structure (SMILES)	EC50 [1]	Ent. A Max Activity (%) [2]	Ent. A Max Activity (%) (Enteroid Assay A)	EC50 (Enteroid Assay A)
Cc1cccc(C)c1-c1cc2nc(n1)NS(=O)(=O)c1cccc(c1)C(=O)N1CCN(C(C)C)C[C@@H]1CO2 [Compound 165, (8R)-13-(2,6-Dimethylphenyl)-6-(propan-2-yl)-10-oxa-17λ^6-thia-3,6,14,16,23-pentaazatetracyclo[16.3.1.111,15.03,8]tricosa-1(21),11,13,15(23),18(22),19-hexaene-2,17,17-trione]	3000 to 30000 nM	+++ (+++ is >60%)		
Cc1cccc(C)c1-c1cc2nc(n1)NS(=O)(=O)c1cccc(c1)C(=O)N1CCN(C(=O)NC3CCCCCC3)C[C@@H]1CO2 [Compound 166, (8R)—N-Cycloheptyl-13-(2,6-dimethylphenyl)-2,17,17-trioxo-10-oxa-17λ^6-thia-3,6,14,16,23-pentaazatetracyclo[16.3.1.111,15.03,8]tricosa-1(21),11,13,15(23),18(22),19-hexaene-6-carboxamide]	3000 to 30000 nM	+++ (+++ is >60%)		
Cc1cccc(C)c1-c1cc2nc(n1)NS(=O)(=O)c1cccc(c1)C(=O)N1CCN(C(=O)N(C(C)C)C(C)C)C[C@@H]1CO2 [Compound 167, (8R)-13-(2,6-Dimethylphenyl)-2,17,17-trioxo-N,N-bis(propan-2-yl)-10-oxa-17λ^6-thia-3,6,14,16,23-pentaazatetracyclo[16.3.1.111,15.03,8]tricosa-1(21),11,13,15(23),18(22),19-hexaene-6-carboxamide]	1000 to 3000 nM	+++ (+++ is >60%)		
Cc1cccc(C)c1-c1cc2nc(n1)NS(=O)(=O)c1cccc(c1)C(=O)N1CCN(C(=O)C3CCCCC3)C[C@@H]1CO2 [Compound 168, (8R)-6-Cyclohexanecarbonyl-13-(2,6-dimethylphenyl)-10-oxa-17λ^6-thia-3,6,14,16,23-pentaazatetracyclo[16.3.1.111,15.03,8]tricosa-1(21),11,13,15(23),18(22),19-hexaene-2,17,17-trione]	< 1000 nM	+++ (+++ is >60%)		
Cc1cccc(C)c1-c1cc2nc(n1)NS(=O)(=O)c1cccc(c1)C(=O)N1CCN(Cc3ccccc3)CC1CO2 (centres unmarked) [Compound 169, 6-Benzyl-13-(2,6-dimethylphenyl)-10-oxa-17λ^6-thia-3,6,14,16,23-pentaazatetracyclo[16.3.1.111,15.03,8]tricosa-1(21),11,13,15(23),18(22),19-hexaene-2,17,17-trione]	< 1000 nM	+++ (+++ is >60%)		
Cc1cccc(C)c1-c1cc2nc(n1)NS(=O)(=O)c1cccc(c1)C(=O)N1CCNCC1C(C)O2 (centres unmarked) [Compound 172, 13-(2,6-dimethylphenyl)-9-methyl-10-oxa-17λ^6-thia-3,6,14,16,23-pentaazatetracyclo[16.3.1.111,15.03,8]tricosa-1(22),11,13,15(23),18,20-hexaene-2,17,17-trione]		+ (+ is <300%)		
Cc1cccc(C)c1-c1cc2nc(n1)NS(=O)(=O)c1cccc(c1)C(=O)N1CCN(C(C)C)CC1C(Cc1ccccc1)O2 (centres unmarked) [Compound 174, 9-benzyl-13-(2,6-dimethylphenyl)-6-(propan-2-yl)-10-oxa-17λ^6-thia-3,6,14,16,23-pentaazatetracyclo[16.3.1.111,15.03,8]tricosa-1(22),11,13,15(23),18,20-hexaene-2,17,17-trione]			+++ (+++ is >600%)	< 1000 nM
Cc1cccc(C)c1-c1cc2nc(n1)NS(=O)(=O)c1cccc(c1)C(=O)N1CCNCC1C(Cc1ccccc1)O2 (centres unmarked) [Compound 176, 9-benzyl-13-(2,6-dimethylphenyl)-10-oxa-17λ^6-thia-3,6,14,16,23-pentaazatetracyclo[16.3.1.111,15.03,8]tricosa-1(22),11,13,15(23),18,20-hexaene-2,17,17-trione]			+ (+ is <30%)	3000 to 30000 nM
Cc1cccc(C)c1-c1cc2nc(n1)NS(=O)(=O)c1cccc(c1)C(=O)N1CCN(CCC(C)(C)C)C(CO2)C1 (centres unmarked) [Compound 177, 18-(3,3-Dimethylbutyl)-12-(2,6-dimethylphenyl)-15-oxa-8λ^6-thia-1,9,11,18,22-pentaazatetracyclo[15.3.1.13,7.110,14]tricosa-3(23),4,6,10(22),11,13-hexaene-2,8,8-trione]	< 1000 nM	++ (++ is 30-60%)		
Cc1cccc(C)c1-c1cc2nc(n1)NS(=O)(=O)c1cccc(c1)C(=O)N1CCN(Cc3ccccc3)C(CO2)C1 (centres unmarked) [Compound 178, 18-Benzyl-12-(2,6-dimethylphenyl)-15-oxa-8λ^6-thia-1,9,11,18,22-pentaazatetracyclo[15.3.1.13,7.110,14]tricosa-3,5,7(23),10(22),11,13-hexaene-2,8,8-trione]	< 1000 nM	++ (++ is 30-60%)		
Cc1cccc(C)c1-c1cc2nc(n1)NS(=O)(=O)c1cccc(c1)C(=O)N1Cc3cc(C(C)(C)C)ccc3C(C1)O2 (centres unmarked) [Compound 182, 20-tert-Butyl-12-(2,6-dimethylphenyl)-15-oxa-8λ^6-thia-1,9,11,25-tetraazapentacyclo[14.7.1.13,7.110,14.017,22]hexacosa-3,5,7(26),10,12,14(25),17,19,21-nonaene-2,8,8-trione]			+ (+ is <30%)	
Cc1cccc(C)c1-c1cc2nc(n1)NS(=O)(=O)c1cccc(c1)C(=O)N1Cc3cc(C(C)(C)C)ccc3[C@H](O2)[C@H]1CC(C)C [Compound 184, (16S,24R)-20-tert-Butyl-12-(2,6-dimethylphenyl)-24-(2-methylpropyl)-15-oxa-8λ^6-thia-1,9,11,25-tetraazapentacyclo[14.7.1.13,7.110,14.017,22]hexacosa-3,5,7(26),10,12,14(25),17,19,21-nonaene-2,8,8-trione]			+++ (+++ is >600%)	< 1000 nM
Cc1cccc(C)c1-c1cc2nc(n1)NS(=O)(=O)c1cccc(c1)C(=O)N1Cc3cc(C(C)(C)C)ccc3[C@@H](O2)[C@H]1CC(C)C [Compound 185, (16R,24R)-20-tert-butyl-12-(2,6-dimethylphenyl)-24-(2-methylpropyl)-15-oxa-8λ^6-thia-1,9,11,25-tetraazapentacyclo[14.7.1.13,7.110,14.017,22]hexacosa-3,5,7(26),10,12,14(25),17,19,21-nonaene-2,8,8-trione]			+++ (+++ is >600%)	< 1000 nM
Cc1cccc(C)c1-c1cc2nc(n1)NS(=O)(=O)c1cccc(c1)C(=O)N1CCCN(Cc3ccccc3)CC(C1)O2 (centres unmarked) [Compound 205, 18-Benzyl-12-(2,6-dimethylphenyl)-15-oxa-8λ^6-thia-1,9,11,18,23-pentaazatetracyclo[14.5.1.13,7.110,14]tetracosa-3,5,7(24),10,12,14(23)-hexaene-2,8,8-trione]			++ (++ is 30-60%)	< 1000 nM
Cc1cccc(C)c1-c1cc2nc(n1)NS(=O)(=O)c1cccc(c1)C(=O)N1CCCN(CCC(C)(C)C)CC(C1)O2 (centres unmarked) [Compound 206, 18-(3,3-Dimethylbutyl)-12-(2,6-dimethylphenyl)-15-oxa-8λ^6-thia-1,9,11,18,23-pentaazatetracyclo[14.5.1.13,7.110,14]tetracosa-3,5,7(24),10,12,14(23)-hexaene-2,8,8-trione]			++ (++ is 30-60%)	< 1000 nM
Cc1cccc(C)c1-c1cc2nc(n1)NS(=O)(=O)c1cc(n(C)c1)C(=O)N1Cc3ccccc3C(C1)O2 (centres unmarked) [Compound 207, 11-(2,6-Dimethylphenyl)-4-methyl-14-oxa-7λ^6-thia-1,4,8,10,24-pentaazapentacyclo[13.7.1.13,6.19,13.016,21]pentacosa-3(25),5,9(24),10,12,16(21),17,19-octaene-2,7,7-trione]	< 1000 nM	++ (++ is 30-60%)		
Cc1cccc(C)c1-c1cc2nc(n1)NS(=O)(=O)c1cccc(c1)CN1Cc3ccccc3C(C1)O2 (centres unmarked) [Compound 208, 12-(2,6-Dimethylphenyl)-15-oxa-8λ^6-thia-1,9,11,25-tetraazapentacyclo[14.7.1.13,7.110,14.017,22]hexacosa-3(26),4,6,10,12,14(25),17(22),18,20-nonaene-8,8-dione]	< 1000 nM	++ (++ is 30-60%)		
Cc1cccc(C)c1-c1cc2nc(n1)NS(=O)(=O)c1cccc(c1)C(=O)N1CCOC[C@@H]1[C@@H](Cc1ccccc1)O2 [Compound 209, (8R)-9-Benzyl-13-(2,6-dimethylphenyl)-6,10-dioxa-17λ^6-thia-3,14,16,23-tetraazatetracyclo[16.3.1.111,15.03,8]tricosa-1(22),11,13,15(23),18,20-hexaene-2,17,17-trione]	< 1000 nM	+++ (+++ is >60%)		
Cc1cccc(C)c1-c1cc2nc(n1)NS(=O)(=O)c1cccc(c1)C(=O)N1Cc3ccccc3C[C@@H]1CO2 [Compound 211, (12R)-17-(2,6-Dimethylphenyl)-14-oxa-21λ^6-thia-3,18,20,27-tetraazapentacyclo[20.3.1.115,19.03,12.05,10]heptacosa-1(26),5(10),6,8,15(27),16,18,22,24-nonaene-2,21,21-trione]	< 1000 nM	+++ (+++ is >60%)		
Cc1cccc(C)c1-c1cc2nc(n1)NS(=O)(=O)c1cccc(c1)C(=O)N1Cc3ccccc3C[C@H]1CO2 [Compound 212, (12S)-17-(2,6-Dimethylphenyl)-14-oxa-21λ^6-thia-3,18,20,27-tetraazapentacyclo[20.3.1.115,19.03,12.05,10]heptacosa-1(26),5(10),6,8,15(27),16,18,22,24-nonaene-2,21,21-trione]	< 1000 nM	++ (++ is 30-60%)		
